Results as given in PubChem BioAssay (NCI).
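Each compound was tested at five concentrations against cells in 96-well plates for 48 hours. GI50: concentration for 50% inhibition of growth. The concentration for full growth arrest is given as TGI.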

Columns and labels:
Assay in all cases: NCI anticancer screen, dose series, 48 h
NCI-H23 lung = test system: NCI-H23 lung
A549 NSCLC = test system: A549 NSCLC
CAKI-1 renal = test system: CAKI-1 renal
SF-539 CNS = test system: SF-539 CNS
DU-145 prostate = test system: DU-145 prostate
EKVX NSCLC = test system: EKVX NSCLC
TK-10 renal = test system: TK-10 renal
OVCAR-3 ovarian = test system: OVCAR-3 ovarian
OVCAR-4 ovarian = test system: OVCAR-4 ovarian
UACC-257 melanoma = test system: UACC-257 melanoma
SF-268 CNS = test system: SF-268 CNS
NCI/ADR-RES ovarian = test system: NCI/ADR-RES ovarian
NCI-H522 lung = test system: NCI-H522 lung
SNB-75 CNS = test system: SNB-75 CNS
MOLT-4 leukemia = test system: MOLT-4 leukemia
HT29 colon = test system: HT29 colon
MDA-MB-435 = test system: MDA-MB-435
ACHN renal = test system: ACHN renal
SK-MEL-28 melanoma = test system: SK-MEL-28 melanoma
A498 renal = test system: A498 renal
SK-MEL-5 melanoma = test system: SK-MEL-5 melanoma
COLO 205 colon = test system: COLO 205 colon
T-47D breast = test system: T-47D breast
786-0 renal = test system: 786-0 renal
OVCAR-8 ovarian = test system: OVCAR-8 ovarian
CCRF-CEM leukemia = test system: CCRF-CEM leukemia
NCI-H460 lung = test system: NCI-H460 lung
HOP-62 NSCLC = test system: HOP-62 NSCLC
HCT-15 colon = test system: HCT-15 colon
PC-3 prostate = test system: PC-3 prostate
RXF 393 renal = test system: RXF 393 renal
HOP-92 NSCLC = test system: HOP-92 NSCLC
U251 CNS = test system: U251 CNS
UACC-62 melanoma = test system: UACC-62 melanoma
KM12 colon = test system: KM12 colon
M14 melanoma = test system: M14 melanoma
HCT-116 colon = test system: HCT-116 colon
MDA-MB-231 breast = test system: MDA-MB-231 breast
SF-295 CNS = test system: SF-295 CNS
SK-OV-3 ovarian = test system: SK-OV-3 ovarian
UO-31 renal = test system: UO-31 renal
SK-MEL-2 melanoma = test system: SK-MEL-2 melanoma
SNB-19 CNS = test system: SNB-19 CNS
RPMI-8226 leukemia = test system: RPMI-8226 leukemia
HL-60(TB) leukemia = test system: HL-60(TB) leukemia
SW-620 colon = test system: SW-620 colon
MALME-3M melanoma = test system: MALME-3M melanoma
SN12C renal = test system: SN12C renal
OVCAR-5 ovarian = test system: OVCAR-5 ovarian
NCI-H226 lung = test system: NCI-H226 lung
K-562 leukemia = test system: K-562 leukemia
BT-549 breast = test system: BT-549 breast
IGROV1 ovarian = test system: IGROV1 ovarian
LOX IMVI melanoma = test system: LOX IMVI melanoma
HCC-2998 colon = test system: HCC-2998 colon
HS 578T breast = test system: HS 578T breast
MCF7 breast = test system: MCF7 breast
SR leukemia = test system: SR leukemia

## Clc1ccc(N2CCN(CCCN3CCN(c4cccc(Cl)c4)CC3)CC2)cc1
NCI-H23 lung
  GI50: 3.33 µM
  TGI: 17.8 µM
A549 NSCLC
  GI50: 8.57 µM
  TGI: 28.4 µM
CAKI-1 renal
  GI50: 7.43 µM
  TGI: 25.6 µM
SF-539 CNS
  GI50: 3.21 µM
  TGI: 12.4 µM
DU-145 prostate
  GI50: 8.14 µM
  TGI: 21.4 µM
EKVX NSCLC
  GI50: 4.5 µM
  TGI: 35.9 µM
TK-10 renal
  GI50: 5.32 µM
  TGI: 21.3 µM
OVCAR-3 ovarian
  GI50: 3.44 µM
  TGI: 15.3 µM
OVCAR-4 ovarian
  GI50: 5.77 µM
  TGI: 20.7 µM
UACC-257 melanoma
  GI50: 4.33 µM
  TGI: 16.3 µM
SF-268 CNS
  GI50: 7.77 µM
  TGI: 21.4 µM
NCI/ADR-RES ovarian
  GI50: 4.6 µM
  TGI: 20.7 µM
NCI-H522 lung
  GI50: 14.7 µM
  TGI: 34 µM
SNB-75 CNS
  GI50: 2.52 µM
  TGI: 14.8 µM
MOLT-4 leukemia
  GI50: 2.01 µM
  TGI: 17.4 µM
HT29 colon
  GI50: 3.03 µM
  TGI: 13.5 µM
MDA-MB-435
  GI50: 3.36 µM
  TGI: 16.7 µM
ACHN renal
  GI50: 7.77 µM
  TGI: 21.5 µM
SK-MEL-28 melanoma
  GI50: 2.53 µM
  TGI: 8.27 µM
A498 renal
  GI50: 4.61 µM
  TGI: 18.8 µM
SK-MEL-5 melanoma
  GI50: 1.6 µM
  TGI: 3.46 µM
COLO 205 colon
  GI50: 1.62 µM
  TGI: 3.35 µM
T-47D breast
  GI50: 1.63 µM
  TGI: 14.3 µM
786-0 renal
  GI50: 4.63 µM
  TGI: 18.5 µM
OVCAR-8 ovarian
  GI50: 10.4 µM
  TGI: 28.1 µM
CCRF-CEM leukemia
  GI50: 3.8 µM
  TGI: 25.3 µM
NCI-H460 lung
  GI50: 3.78 µM
  TGI: 15.8 µM
HOP-62 NSCLC
  GI50: 3.97 µM
  TGI: 18.1 µM
HCT-15 colon
  GI50: 4.9 µM
  TGI: 22.4 µM
PC-3 prostate
  GI50: 3.34 µM
  TGI: 16.4 µM
RXF 393 renal
  GI50: 6.7 µM
  TGI: 22.4 µM
HOP-92 NSCLC
  GI50: 0.813 µM
  TGI: 11.4 µM
U251 CNS
  GI50: 5.45 µM
  TGI: 20.1 µM
UACC-62 melanoma
  GI50: 2.86 µM
  TGI: 11.3 µM
KM12 colon
  GI50: 3.45 µM
  TGI: 15.6 µM
M14 melanoma
  GI50: 1.57 µM
  TGI: 3.21 µM
HCT-116 colon
  GI50: 2.45 µM
  TGI: 12.2 µM
MDA-MB-231 breast
  GI50: 4.22 µM
  TGI: 18.6 µM
SF-295 CNS
  GI50: 3.74 µM
  TGI: 19.1 µM
SK-OV-3 ovarian
  GI50: 10.7 µM
  TGI: 23.2 µM
UO-31 renal
  GI50: 3.56 µM
  TGI: 16.2 µM
SK-MEL-2 melanoma
  GI50: 14.3 µM
  TGI: 31.5 µM
SNB-19 CNS
  GI50: 11.3 µM
  TGI: 24.7 µM
RPMI-8226 leukemia
  GI50: 1.79 µM
  TGI: 7.84 µM
HL-60(TB) leukemia
  GI50: 2.33 µM
  TGI: 6.7 µM
SW-620 colon
  GI50: 3.08 µM
  TGI: 14 µM
MALME-3M melanoma
  GI50: 2.06 µM
  TGI: 6.15 µM
SN12C renal
  GI50: 7.51 µM
  TGI: 21.6 µM
OVCAR-5 ovarian
  GI50: 9.12 µM
  TGI: 29.6 µM
NCI-H226 lung
  GI50: 6.51 µM
  TGI: 23.3 µM
K-562 leukemia
  GI50: 1.45 µM
  TGI: 6.08 µM
BT-549 breast
  GI50: 3.72 µM
  TGI: 15.6 µM
IGROV1 ovarian
  GI50: 8.89 µM
  TGI: 24.6 µM
LOX IMVI melanoma
  GI50: 2.8 µM
  TGI: 13.8 µM
HCC-2998 colon
  GI50: 2.65 µM
  TGI: 11.7 µM
HS 578T breast
  GI50: 4.82 µM
  TGI: 22 µM
MCF7 breast
  GI50: 2.92 µM
  TGI: 12.2 µM

## Cc1cc2cc3c(Cl)c(CCCl)c(C)nc3cc2c(Cl)c1CCCl
NCI-H23 lung
  TGI: 63.6 µM
A549 NSCLC
  TGI: 57.2 µM
SF-539 CNS
  TGI: 30 µM
DU-145 prostate
  TGI: 80.3 µM
EKVX NSCLC
  TGI: 42.3 µM
TK-10 renal
  TGI: > 100 µM
OVCAR-3 ovarian
  TGI: 34.4 µM
OVCAR-4 ovarian
  TGI: 66.3 µM
UACC-257 melanoma
  TGI: 34.8 µM
SF-268 CNS
  TGI: 30.9 µM
NCI/ADR-RES ovarian
  TGI: 61.8 µM
NCI-H522 lung
  TGI: 37.7 µM
SNB-75 CNS
  TGI: > 100 µM
MOLT-4 leukemia
  TGI: 44.7 µM
HT29 colon
  TGI: > 100 µM
MDA-MB-435
  TGI: 30.8 µM
ACHN renal
  TGI: 75.5 µM
SK-MEL-28 melanoma
  TGI: 35.1 µM
A498 renal
  TGI: 48.4 µM
SK-MEL-5 melanoma
  TGI: 26.6 µM
COLO 205 colon
  TGI: 36.1 µM
T-47D breast
  TGI: 69.8 µM
786-0 renal
  TGI: 78.6 µM
OVCAR-8 ovarian
  TGI: 94.5 µM
CCRF-CEM leukemia
  TGI: 48.9 µM
NCI-H460 lung
  TGI: 34.2 µM
HOP-62 NSCLC
  TGI: 27.8 µM
SR leukemia
  TGI: 32.9 µM
HCT-15 colon
  TGI: > 100 µM
PC-3 prostate
  TGI: 39.6 µM
RXF 393 renal
  TGI: 17.5 µM
HOP-92 NSCLC
  TGI: 35.4 µM
U251 CNS
  TGI: 60 µM
UACC-62 melanoma
  TGI: 34.4 µM
KM12 colon
  TGI: 46.4 µM
HCT-116 colon
  TGI: 31.8 µM
SF-295 CNS
  TGI: 35.2 µM
UO-31 renal
  TGI: 50.9 µM
SNB-19 CNS
  TGI: 85.9 µM
RPMI-8226 leukemia
  TGI: 36.5 µM
HL-60(TB) leukemia
  TGI: 27.3 µM
SW-620 colon
  TGI: 76.8 µM
MALME-3M melanoma
  TGI: 45.7 µM
NCI-H226 lung
  TGI: 20.5 µM
K-562 leukemia
  TGI: 43.3 µM
BT-549 breast
  TGI: 47.7 µM
IGROV1 ovarian
  TGI: > 100 µM
LOX IMVI melanoma
  TGI: 29.5 µM
HCC-2998 colon
  TGI: 39.7 µM
HS 578T breast
  TGI: 30.6 µM
MCF7 breast
  TGI: 56.7 µM
